Some test systems named below: HCT-15 colon; KM12 colon; SF-295 CNS; PC-3 prostate; HS 578T breast; T-47D breast; RPMI-8226 leukemia; SR leukemia; IGROV1 ovarian; OVCAR-5 ovarian.
Holding throughout (assay): inhibition of tumour cell growth, NCI panel, 48 h

Values joined by “and” are separate entries in the source; they are usually repeats but may differ in a detail not shown here. Equal entries are not always repeated.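 1) Cells in 96-well plates. 2) Compound, 48 h, 5 concentrations. 3) Linear interpolation between surrounding doses. 4) Unreached endpoint = highest concentration. GI50 is the concentration that inhibits growth by half. Definition used: TGI = concentration required for complete inhibition of growth.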

Regarding `CCn1c(-c2nonc2N)nc2c(C#CC(C)(C)O)ncc(OC3CCNCC3)c21`, the GI50 is above 25 µM in the assay with HCT-15 colon; 4.52 µM in the assay with KM12 colon; 9.09 µM with SF-295 CNS; 7.58 µM in the assay with PC-3 prostate; 2.11 µM in the assay on HS 578T breast; 1.21 µM in the assay on T-47D breast. Besides, the GI50 was above 25 µM in the assay on RPMI-8226 leukemia, 9640 nM in the assay with SR leukemia, 696 nM with IGROV1 ovarian and above 25 µM with OVCAR-5 ovarian. Further, the TGI in the assay on HCT-15 colon, in the assay on KM12 colon, with SF-295 CNS, in the assay with PC-3 prostate, with HS 578T breast and with T-47D breast was above 25 µM throughout. For the same molecule, the TGI in the assay on RPMI-8226 leukemia is above 25 µM; in the assay on SR leukemia, above 21.3 µM; with IGROV1 ovarian, above 25 µM; with OVCAR-5 ovarian, above 25 µM.
With `O=C(O)CCCCn1ccc(=O)[nH]c1=O`, the TGI in the assay with HCT-15 colon, with KM12 colon, with SF-295 CNS, in the assay with PC-3 prostate, with HS 578T breast and in the assay on T-47D breast was above 100 µM in each case. Besides, the TGI with RPMI-8226 leukemia, in the assay with SR leukemia, in the assay with IGROV1 ovarian and with OVCAR-5 ovarian was above 100 µM each time.
Turning to `CS(=O)(=O)CCNCc1ccc(-c2ccc3ncnc(Nc4ccc(OCc5cccc(F)c5)c(Cl)c4)c3c2)o1`, the GI50 with HCT-15 colon is 4.97 µM and 3.63 µM and 3.54 µM; with KM12 colon it was 8.92 µM and 2.03 µM and 5.25 µM; with SF-295 CNS, 6.84 µM and 5.32 µM and 3.54 µM; in the assay with PC-3 prostate it was 9.68 µM and 5.3 µM and 4.45 µM; with HS 578T breast, > 10 µM and 8.49 µM and 8.64 µM; with RPMI-8226 leukemia, 3.54 µM and 2.82 µM and 1.58 µM. Further, the GI50 is 2750 nM and 2570 nM and 2280 nM in the assay on SR leukemia; 2020 nM and 338 nM and 387 nM with IGROV1 ovarian. The TGI in the assay on HCT-15 colon was > 10 µM and > 100 µM and 27.6 µM; in the assay with KM12 colon, > 10 µM and 4 µM and 24.5 µM; in the assay on SF-295 CNS it was > 10 µM and > 100 µM and 24.8 µM; in the assay with PC-3 prostate, > 10 µM and > 100 µM and 46.4 µM; with HS 578T breast it was > 10 µM and > 53.7 µM and 57.6 µM; in the assay on T-47D breast, > 10 µM and > 100 µM and 37.6 µM. Moreover, the TGI in the assay on RPMI-8226 leukemia was > 10 µM and > 29.4 µM and 7.05 µM; in the assay on SR leukemia, > 10 µM and 5.8 µM and 11.3 µM; in the assay on IGROV1 ovarian, > 10 µM and 26.1 µM.
Consider `O=C([O][Hg][c]1ccccc1)c1ccccc1`, for which the GI50 with HCT-15 colon was 0.437 µM; with KM12 colon, 11.6 µM; in the assay on SF-295 CNS, 12.2 µM; in the assay with PC-3 prostate, 3.29 µM; with HS 578T breast, 1.1 µM; in the assay on T-47D breast it was 0.475 µM. The GI50 in the assay with RPMI-8226 leukemia is 1.23 µM; in the assay with SR leukemia, 382 nM; with IGROV1 ovarian, 1480 nM; with OVCAR-5 ovarian, 2.48 µM. Moreover, the TGI in the assay with HCT-15 colon was 1.79 µM; in the assay on KM12 colon it was 24.1 µM; in the assay with SF-295 CNS, 25.5 µM; in the assay on PC-3 prostate it was 14.7 µM; in the assay with HS 578T breast it was 5.87 µM; with T-47D breast, 2.43 µM. The TGI turned out to be 4.56 µM with RPMI-8226 leukemia, 2.35 µM in the assay with SR leukemia, 3.58 µM in the assay on IGROV1 ovarian and 5.56 µM in the assay with OVCAR-5 ovarian.
Consider `COc1cc2c(NCCCCCO)ncnc2c(OC)c1OC`, for which the TGI in the assay with HCT-15 colon, in the assay with KM12 colon, in the assay with SF-295 CNS, with PC-3 prostate, with HS 578T breast and in the assay with T-47D breast was above 100 µM in each case. The TGI with RPMI-8226 leukemia, in the assay with SR leukemia, in the assay on IGROV1 ovarian and in the assay on OVCAR-5 ovarian was above 100 µM each time.
Take `COc1cc(OC)cc(Oc2cnc3cc(N)cc(N)c3n2)c1`: the GI50 in the assay on HCT-15 colon was 18.3 µM; in the assay on KM12 colon, 10.3 µM; in the assay with SF-295 CNS, 11.6 µM; with PC-3 prostate, 24.7 µM; in the assay with HS 578T breast, 24.7 µM; in the assay on T-47D breast, 13.6 µM. Further, the GI50 in the assay with RPMI-8226 leukemia is 24 µM; in the assay with SR leukemia, 11300 nM; with OVCAR-5 ovarian, 15.5 µM. The TGI in the assay with HCT-15 colon came to 45.1 µM; with KM12 colon, 24.1 µM; in the assay on SF-295 CNS, 32.7 µM; with PC-3 prostate, 56 µM; in the assay on HS 578T breast, 87.8 µM; in the assay on T-47D breast it was 42.4 µM. Also, the TGI with RPMI-8226 leukemia was 53.7 µM; with SR leukemia, 26.1 µM; with OVCAR-5 ovarian, 30.4 µM.
`CC(=O)OCC12CN(C#N)C3C4COC(CC41)C1(C(=O)N(C)c4ccccc41)C32` (stereo not given): the TGI was 35.5 µM in the assay with HCT-15 colon; above 100 µM with KM12 colon; above 100 µM in the assay on SF-295 CNS; above 100 µM with PC-3 prostate; 55.9 µM with HS 578T breast; 62.7 µM with T-47D breast. Further, the TGI is above 100 µM in the assay with RPMI-8226 leukemia, 68.3 µM in the assay with SR leukemia, 85 µM with IGROV1 ovarian and above 100 µM in the assay with OVCAR-5 ovarian.
As for `COc1ccc(-c2cc(/C=C3\C(=O)Nc4cc(Cl)ccc43)[nH]n2)cc1`, the GI50 with HCT-15 colon is 2.53 µM; in the assay with KM12 colon, 3.46 µM; in the assay with SF-295 CNS, 2.68 µM; with PC-3 prostate, 2.75 µM; with HS 578T breast, 2.9 µM; in the assay with T-47D breast, 6.6 µM. The GI50 with RPMI-8226 leukemia was 3.3 µM; with SR leukemia, 2440 nM; in the assay on IGROV1 ovarian, 4760 nM; with OVCAR-5 ovarian, 5.89 µM. Moreover, the TGI in the assay with HCT-15 colon is above 100 µM; in the assay with KM12 colon it was 56.1 µM; in the assay on SF-295 CNS it was 12.2 µM; in the assay on PC-3 prostate it was above 100 µM; with HS 578T breast it was 35 µM; in the assay on T-47D breast, above 100 µM. Besides, the TGI with RPMI-8226 leukemia is 40 µM; in the assay with SR leukemia it was 14.1 µM; in the assay on IGROV1 ovarian, above 100 µM; with OVCAR-5 ovarian, above 100 µM.
Turning to `O=[N+]([O-])c1ccc(/C=C/c2nc3ccc(Cl)cc3[nH]2)cc1`, the GI50 with HCT-15 colon is 11.7 µM; in the assay on KM12 colon it was 5.6 µM; with SF-295 CNS, 39.9 µM; with PC-3 prostate, 21.8 µM; with HS 578T breast, 68.2 µM; in the assay with T-47D breast, 28.8 µM. In addition, the GI50 was 31.4 µM with RPMI-8226 leukemia, 4950 nM with SR leukemia, 35700 nM in the assay with IGROV1 ovarian and above 100 µM in the assay on OVCAR-5 ovarian. Moreover, the TGI in the assay with HCT-15 colon, in the assay with KM12 colon, with SF-295 CNS, in the assay on PC-3 prostate, in the assay on HS 578T breast and in the assay on T-47D breast was above 100 µM each time. Moreover, the TGI with RPMI-8226 leukemia, with SR leukemia, in the assay on IGROV1 ovarian and in the assay on OVCAR-5 ovarian was above 100 µM throughout.

Values taken from PubChem BioAssay (NCI).
